pKi: −log10 of the molar value.
Assays:
Set-up in all cases: species or system Lederbergia lenta
[1] = Compound was evaluated for the inhibition of SBL-M222C enzyme.
[2] = Compound was evaluated for the inhibition of SBL-M222C-SEtSO3- enzyme.
[3] = Compound was evaluated for the inhibition of SBL-M222C-SEtNH3+ enzyme.
[4] = Compound was evaluated for the inhibition of SBL-WT enzyme.
[5] = Compound was evaluated for the inhibition of SBL-M222C-SMe enzyme.

SMILES	pKi [1]	pKi [2]	pKi [3]	pKi [4]	pKi [5]
OB(O)c1cccc(-c2ccccc2)c1	4.51	4.60	4.40	3.49	3.82
OB(O)c1ccc(Cl)cc1Cl	4.74	4.96	5.05	5.04	5.42
Nc1cccc(B(O)O)c1	3.69	3.75	3.90	3.82	3.86
OB(O)c1ccc(Br)cc1	4.64	4.81	4.98	4.64	4.95
OB(O)c1ccccc1 [PHENYLBORONIC ACID]	3.81	3.84	3.97	3.85	3.91

From ChEMBL document CHEMBL1129207, “Altering the specificity of subtilisin B. Lentus by combining site-directed mutagenesis and chemical modification” (Bioorg Med Chem Lett, 1996)
